Results on 17 compounds are retold here after patent US8901138B2, “Sulfoximine substituted quinazolines for pharmaceutical compositions” (Boehringer Ingelheim International GmbH, priority 2012, dated 2014).

T1 sequence (Q9HBH9 whole entry): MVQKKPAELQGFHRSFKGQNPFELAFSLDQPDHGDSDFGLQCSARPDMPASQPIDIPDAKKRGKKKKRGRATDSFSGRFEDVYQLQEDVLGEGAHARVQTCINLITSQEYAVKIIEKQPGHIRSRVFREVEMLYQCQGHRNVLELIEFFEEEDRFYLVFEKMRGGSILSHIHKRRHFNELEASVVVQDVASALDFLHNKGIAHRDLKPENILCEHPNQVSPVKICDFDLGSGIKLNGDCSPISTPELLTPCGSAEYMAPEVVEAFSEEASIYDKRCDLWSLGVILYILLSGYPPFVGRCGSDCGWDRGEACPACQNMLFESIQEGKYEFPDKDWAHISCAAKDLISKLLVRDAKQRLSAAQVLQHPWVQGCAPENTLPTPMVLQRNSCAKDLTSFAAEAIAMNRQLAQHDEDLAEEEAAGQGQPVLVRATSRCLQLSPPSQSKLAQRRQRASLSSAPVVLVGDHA

The first test has as its target T1, MNK2a (Homo sapiens, UniProt Q9HBH9).
T1 construct: made in house
The experiment in a line: MNK2a in vitro kinase assay (assay 1), ADP-Glo. The class given is biochemical. Particulars: preactivated GST-MNK2a, 20 μM ATP, read-out: MNK2 IC50. The essentials: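 Preactivated GST-MNK2a (10 nM) with eIF4E peptide (25 μM) and ATP (20 μM) in HEPES/DTT/MgCl2 buffer, 90 min at room temperature, final DMSO <3%. ADP formed read by ADP-Glo luminescence and normalised to vehicle and 20 μM reference-inhibitor controls; IC50 from dose-response curves.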
The IC50 is the point on the concentration scale where inhibition reaches its midpoint. Turning to `Cc1cc(N=S(C)(=O)C2CCOCC2)cc2ncnc(Nc3ccc(F)cc3O[C@H]3CCOC3)c12` (some centres unmarked) [Example 2.101], the IC50 is 5 nM.

On to `COCCS(C)(=O)=Nc1cc(C)c2c(Nc3ccc(F)cc3O[C@H]3CC[C@H](OC)CC3)ncnc2c1` (some centres unmarked) [Example 2.87], for which the IC50 was found to be 7 nM.

As to `Cc1cc(N=S(C)(C)=O)cc2ncnc(Nc3cccnc3O[C@H]3CCCNC3)c12` [Example 1.37], the IC50 is 4 nM.

`Cc1cc(N=S(C)(=O)CCc2ccccc2)cc2ncnc(Nc3ccc(F)cc3O[C@H]3CC[C@H](O)CC3)c12` (some centres unmarked) [Example 2.54]: the IC50 amounted to 5 nM.

Turning to `Cc1cc(N=S2(=O)CCC2)cc2ncnc(Nc3ccc(F)cc3O[C@H]3CC[C@H](O)CC3)c12` [Example 2.110], the IC50 stood at 2 nM.

For the compound `CO[C@@H]1CO[C@H]2[C@@H]1OC[C@H]2Oc1cc(F)ccc1Nc1ncnc2cc(N=S(C)(C)=O)cc(C)c12` [Example 2.34], the IC50 is 1 nM.

Turning to `Cc1cc(N=S(C)(=O)c2cccnc2)cc2ncnc(Nc3ccc(F)cc3O[C@H]3CCOC3)c12` (some centres unmarked) [Example 2.102], the IC50 turned out to be 5 nM.

As for `CS(C)(=O)=Nc1cc(C#N)c2c(Nc3ccc(F)cc3O[C@H]3CCOC3)ncnc2c1` [Example 7.9], the IC50 was found to be 3 nM.

As for `Cc1cc(N=S(C)(C)=O)cc2ncnc(Nc3ccc(F)cc3O[C@H]3C[C@H](N(C)C)C3)c12` [Example 7.15], the IC50 turned out to be 10 nM.

Regarding `Cc1cc(N=S(C)(=O)CCN(C)C)cc2ncnc(Nc3ccc(F)cc3O[C@H]3CC[C@H](O)CC3)c12` (some centres unmarked) [Example 2.113], the IC50 amounted to 5 nM.

As to `Cc1cc(N=S(C)(C)=O)cc2ncnc(Nc3cccnc3O[C@@H]3CCCN(C(=O)OC(C)(C)C)C3)c12` [Example 2.23], the IC50 was found to be 52 nM.

With `CS(C)(=O)=Nc1cc(Cl)c2c(Nc3ccc(F)cc3O[C@@H]3CO[C@@H]4CCO[C@@H]43)ncnc2c1` [Example 1.4], the IC50 came to 1 nM.

Take `Cc1cc(N=S(C)(C)=O)cc2ncnc(Nc3ccc(C(N)=O)cc3OC3CCOCC3)c12` [Example 2.16]: the IC50 was 10 nM.

On to `CS(C)(=O)=Nc1cc(F)c2c(Nc3ccc(F)cc3O[C@@H]3CCCN(CCO)C3)ncnc2c1` [Example 6.1], for which the IC50 came to 8 nM.

As to `Cc1cc(N=S(C)(C)=O)cc2ncnc(Nc3ccc(F)cc3OC3(C)COC3)c12` [Example 1.31], the IC50 worked out at 13 nM.

With `Cc1cc(N=S(C)(=O)C(C)(C)C)cc2ncnc(Nc3ccc(F)cc3O[C@@H]3CO[C@@H]4CCO[C@@H]43)c12` (some centres unmarked) [Example 2.108], the IC50 amounted to 3 nM.

For the compound `Cc1cc(N=S2(=O)CCOCC2)cc2ncnc(Nc3ccc(F)cc3O[C@@H]3CO[C@H]4[C@@H]3OC[C@H]4O)c12` [Example 2.2], the IC50 was 4 nM.

For a further test, the target named is MNK1a (Homo sapiens, UniProt Q9BUB5). The experiment in a line: MNK1 in vitro kinase assay (assay 2), Z'-LYTE. Type of test: biochemical. The note with it: compound concentration of 1 μM. From the text: B. MNK1 In Vitro Kinase Assay (Assay 2)
Chain of MNK1a (Q9BUB5 1-424 isoform Q9BUB5-2): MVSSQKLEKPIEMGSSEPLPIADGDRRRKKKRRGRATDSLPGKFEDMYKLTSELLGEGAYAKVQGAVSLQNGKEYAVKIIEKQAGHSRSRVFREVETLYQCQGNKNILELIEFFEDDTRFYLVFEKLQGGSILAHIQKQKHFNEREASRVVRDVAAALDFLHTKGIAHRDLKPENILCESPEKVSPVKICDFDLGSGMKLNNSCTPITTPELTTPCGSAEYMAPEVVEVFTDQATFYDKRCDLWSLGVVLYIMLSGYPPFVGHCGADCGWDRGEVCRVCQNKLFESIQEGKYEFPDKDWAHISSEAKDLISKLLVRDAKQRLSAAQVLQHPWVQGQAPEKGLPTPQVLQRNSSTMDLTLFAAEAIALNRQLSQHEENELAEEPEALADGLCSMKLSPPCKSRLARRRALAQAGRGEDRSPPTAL
MNK1 Data can be obtained from the MNK1 Z′-LYTE® assay. The MNK1 Z′-LYTE® screening protocol and assay conditions are also described on www.invitrogen.com.
The assay is described as follows:
The Z′-LYTE® biochemical assay employs a fluorescence-based, coupled-enzyme format and is based on the differential sensitivity of phosphorylated and non-phosphorylated peptides to proteolytic cleavage. The peptide substrate is labeled with two fluorophores—one at each end—that make up a FRET pair.
In the primary reaction, the kinase transfers the gamma-phosphate of ATP to a single tyrosine, serine or threonine residue in a synthetic FRET-peptide. In the secondary reaction, a site-specific protease recognizes and cleaves non-phosphorylated FRET-peptides. Phosphorylation of FRET-peptides suppresses cleavage by the Development Reagent. Cleavage disrupts FRET between the donor (i.e., coumarin) and acceptor (i.e., fluorescein) fluorophores on the FRET-peptide, whereas uncleaved, phosphorylated FRET-peptides maintain FRET. A ratiometric method, which calculates the ratio (the Emission Ratio) of donor emission to acceptor emission after excitation of the donor fluorophore at 400 nm, is used to quantitate reaction progress, as shown in the equation below. Emission Ratio=Coumarin Emission(445 nm)/Fluorescein Emission(520 nm)
ASSAY SETUP: The inhibition of kinase activity of MNK1a was assessed using pre-activated GST-MNK1a. The 2×MKNK1 (MNK1) mixture is prepared in 50 mM HEPES pH 7.5, 0.01% BRIJ-35, 10 mM MgCl2, 4 mM MnCl2, 1 mM EGTA, 2 mM DTT. The final 10 μL Kinase Reaction consists of 13.5-54 ng MKNK1 (MNK1) and 2 μM Ser/Thr 07 in 50 mM HEPES pH 7.5, 0.01% BRIJ-35, 10 mM MgCl2, 2 mM MnCl2, 1 mM EGTA, 1 mM DTT. After the 1 hour Kinase Reaction incubation, 5 μL of a 1:32768 dilution of Development Reagent A is added.
The Test Compounds are screened in 1% DMSO (final) in the well.
All Peptide/Kinase Mixtures are diluted to a 2× working concentration in the MNK1 Kinase Buffer.
All ATP Solutions are diluted to a 4× working concentration in Kinase Buffer (50 mM HEPES pH 7.5, 0.01% BRIJ-35, 10 mM MgCl2, 1 mM EGTA).
Development Reagent Solution:
The Development Reagent is diluted in Development Buffer
Bar-coded Corning, low volume NBS, 384-well plate (Corning Cat. #3676)
1. 2.5 μL-4× Test Compound
2. 5 μL-2× Peptide/Kinase Mixture
5. 60-minute Kinase Reaction incubation at room temperature
6. 5 μL-Development Reagent Solution
8. 60-minute Development Reaction incubation at room temperature
9. Read on fluorescence plate reader and analyze the data
The following equations are used for each set of data points: […]
Correction for Background Fluorescence: FSample−FITCFl Ctl
Emission Ratio (using values corrected for background fluorescence):Coumarin
Emission (445 nm)/Fluorescein Emission (520 nm)
% Phosphorylation (% Phos): 1−((Emission Ratio×F100%)−C100%)/((C0%−C100%)+[Emission Ratio×(F100%−F0%)])*100 % Inhibition: 1−(% PhosSample/% Phos0% Inhibition Ctl)*100 FI=Fluorescence Intensity C100%=Average Coumarin emission signal of the 100% Phos. Control C0%=Average Coumarin emission signal of the 0% Phos. Control F100%=Average Fluorescein emission signal of the 100% Phos. Control F0%=Average Fluorescein emission signal of the 0% Phos. Control Graphing Software
SelectScreen® Kinase Profiling Service uses XLfit from IDBS. The dose response curve is curve fit to model number 205 (sigmoidal dose-response model).
As usually defined, the inhibition is the drop in the measured response relative to a control, in per cent. Higher therefore signals a strong effect. `Cc1cc(N=S(C)(=O)C2CCOCC2)cc2ncnc(Nc3ccc(F)cc3O[C@H]3CCOC3)c12` (some centres unmarked) [Example 2.101] gave an inhibition at 1 µM of 93%.

On to `COCCS(C)(=O)=Nc1cc(C)c2c(Nc3ccc(F)cc3O[C@H]3CC[C@H](OC)CC3)ncnc2c1` (some centres unmarked) [Example 2.87], for which the inhibition at 1 µM was determined as 79%.

Regarding `Cc1cc(N=S(C)(=O)CCc2ccccc2)cc2ncnc(Nc3ccc(F)cc3O[C@H]3CC[C@H](O)CC3)c12` (some centres unmarked) [Example 2.54], 1 µM produced 69% inhibition.

`Cc1cc(N=S2(=O)CCC2)cc2ncnc(Nc3ccc(F)cc3O[C@H]3CC[C@H](O)CC3)c12` [Example 2.110]: the inhibition at 1 µM worked out at 100%.

For `CS(C)(=O)=Nc1cc(C#N)c2c(Nc3ccc(F)cc3O[C@H]3CCOC3)ncnc2c1` [Example 7.9], testing at 1 µM gave an inhibition of 96%.

In the case of `Cc1cc(N=S(C)(C)=O)cc2ncnc(Nc3ccc(F)cc3O[C@H]3C[C@H](N(C)C)C3)c12` [Example 7.15], the inhibition at 1 µM was 92%.

As for `Cc1cc(N=S(C)(=O)CCN(C)C)cc2ncnc(Nc3ccc(F)cc3O[C@H]3CC[C@H](O)CC3)c12` (some centres unmarked) [Example 2.113], the inhibition at 1 µM amounted to 90%.

As for `Cc1cc(N=S(C)(C)=O)cc2ncnc(Nc3cccnc3O[C@@H]3CCCN(C(=O)OC(C)(C)C)C3)c12` [Example 2.23], at 1 µM the inhibition was 66%.

Compound `CS(C)(=O)=Nc1cc(Cl)c2c(Nc3ccc(F)cc3O[C@@H]3CO[C@@H]4CCO[C@@H]43)ncnc2c1` [Example 1.4] registered an inhibition at 1 µM of 100%.

For `Cc1cc(N=S(C)(C)=O)cc2ncnc(Nc3ccc(C(N)=O)cc3OC3CCOCC3)c12` [Example 2.16], 1 µM produced 94% inhibition.

Take `CS(C)(=O)=Nc1cc(F)c2c(Nc3ccc(F)cc3O[C@@H]3CCCN(CCO)C3)ncnc2c1` [Example 6.1]: the inhibition at 1 µM was 85%.

For the compound `Cc1cc(N=S(C)(C)=O)cc2ncnc(Nc3ccc(F)cc3OC3(C)COC3)c12` [Example 1.31], the inhibition at 1 µM was 87%.

Compound `Cc1cc(N=S(C)(=O)C(C)(C)C)cc2ncnc(Nc3ccc(F)cc3O[C@@H]3CO[C@@H]4CCO[C@@H]43)c12` (some centres unmarked) [Example 2.108] yielded an inhibition at 1 µM of 99%.

On to `Cc1cc(N=S2(=O)CCOCC2)cc2ncnc(Nc3ccc(F)cc3O[C@@H]3CO[C@H]4[C@@H]3OC[C@H]4O)c12` [Example 2.2], for which testing at 1 µM gave an inhibition of 95%.

The test is the same for the next values; noted with them: pre-activated GST-MNK1a.
As to `Cc1cc(N=S(C)(C)=O)cc2ncnc(Nc3cccnc3O[C@H]3CCCNC3)c12` [Example 1.37], inhibition was half-maximal at 28 nM (IC50).

`CO[C@@H]1CO[C@H]2[C@@H]1OC[C@H]2Oc1cc(F)ccc1Nc1ncnc2cc(N=S(C)(C)=O)cc(C)c12` [Example 2.34] displayed an IC50 of 17 nM.

For the compound `Cc1cc(N=S(C)(=O)c2cccnc2)cc2ncnc(Nc3ccc(F)cc3O[C@H]3CCOC3)c12` (some centres unmarked) [Example 2.102], the IC50 is 131 nM.

With `CS(C)(=O)=Nc1cc(Cl)c2c(Nc3ccc(F)cc3O[C@@H]3CO[C@@H]4CCO[C@@H]43)ncnc2c1` [Example 1.4], half-maximal inhibition (IC50) required 25 nM.
